In brackets after ≈: the same amount, converted by molar mass. Several values for one entry are separate records, joined by “and”; a condition that tells them apart may be missing. Identical values can stand only once.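 All cell lines were grown in 96-well plates and treated with compound for 48 hours. Here, GI50 denotes the concentration required for 50% inhibition of growth. The concentration for full growth arrest is given as TGI.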
How the values were obtained:
Assay in all cases: DTP human tumour cell line panel, 48 h
RPMI-8226 leukemia = tested on: RPMI-8226 leukemia
UO-31 renal = tested on: UO-31 renal
786-0 renal = tested on: 786-0 renal
A498 renal = tested on: A498 renal
A549 NSCLC = tested on: A549 NSCLC
ACHN renal = tested on: ACHN renal
BT-549 breast = tested on: BT-549 breast
CAKI-1 renal = tested on: CAKI-1 renal
CCRF-CEM leukemia = tested on: CCRF-CEM leukemia
DU-145 prostate = tested on: DU-145 prostate
EKVX NSCLC = tested on: EKVX NSCLC
HCC-2998 colon = tested on: HCC-2998 colon
HCT-116 colon = tested on: HCT-116 colon
HCT-15 colon = tested on: HCT-15 colon
HL-60(TB) leukemia = tested on: HL-60(TB) leukemia
HOP-62 NSCLC = tested on: HOP-62 NSCLC
HOP-92 NSCLC = tested on: HOP-92 NSCLC
HS 578T breast = tested on: HS 578T breast
HT29 colon = tested on: HT29 colon
IGROV1 ovarian = tested on: IGROV1 ovarian
K-562 leukemia = tested on: K-562 leukemia
KM12 colon = tested on: KM12 colon
M14 melanoma = tested on: M14 melanoma
MALME-3M melanoma = tested on: MALME-3M melanoma
MCF7 breast = tested on: MCF7 breast
MDA-MB-231 breast = tested on: MDA-MB-231 breast
MDA-MB-435 = tested on: MDA-MB-435
NCI-H226 lung = tested on: NCI-H226 lung
NCI-H23 lung = tested on: NCI-H23 lung
NCI-H460 lung = tested on: NCI-H460 lung
NCI-H522 lung = tested on: NCI-H522 lung
NCI/ADR-RES ovarian = tested on: NCI/ADR-RES ovarian
OVCAR-3 ovarian = tested on: OVCAR-3 ovarian
OVCAR-4 ovarian = tested on: OVCAR-4 ovarian
OVCAR-5 ovarian = tested on: OVCAR-5 ovarian
OVCAR-8 ovarian = tested on: OVCAR-8 ovarian
PC-3 prostate = tested on: PC-3 prostate
RXF 393 renal = tested on: RXF 393 renal
SF-268 CNS = tested on: SF-268 CNS
SF-295 CNS = tested on: SF-295 CNS
SF-539 CNS = tested on: SF-539 CNS
SK-MEL-2 melanoma = tested on: SK-MEL-2 melanoma
SK-MEL-28 melanoma = tested on: SK-MEL-28 melanoma
SK-MEL-5 melanoma = tested on: SK-MEL-5 melanoma
SK-OV-3 ovarian = tested on: SK-OV-3 ovarian
SN12C renal = tested on: SN12C renal
SNB-19 CNS = tested on: SNB-19 CNS
SNB-75 CNS = tested on: SNB-75 CNS
SW-620 colon = tested on: SW-620 colon
TK-10 renal = tested on: TK-10 renal
U251 CNS = tested on: U251 CNS
UACC-257 melanoma = tested on: UACC-257 melanoma
UACC-62 melanoma = tested on: UACC-62 melanoma
COLO 205 colon = tested on: COLO 205 colon
LOX IMVI melanoma = tested on: LOX IMVI melanoma
MOLT-4 leukemia = tested on: MOLT-4 leukemia
SR leukemia = tested on: SR leukemia

## COc1ccc(-c2cc(-c3ccccc3)c(C#N)c(=O)n2C2OC(COC(C)=O)C(OC(C)=O)C(OC(C)=O)C2OC(C)=O)cc1 (stereo unspecified)
RPMI-8226 leukemia
  GI50: 47.3 µM and 11.5 µM
  TGI: > 100 µM
UO-31 renal
  TGI: > 100 µM

## COc1ccc2[nH]cc(-c3nc(-c4c[nH]c5ccncc45)cs3)c2c1
786-0 renal
  GI50: 1.84 µM
  TGI: 3.41 µM
A498 renal
  GI50: 4.91 µM
  TGI: 16.1 µM
A549 NSCLC
  GI50: 2.35 µM
  TGI: 9.5 µM
ACHN renal
  GI50: 1.66 µM
  TGI: 3.14 µM
BT-549 breast
  GI50: 8.96 µM
  TGI: 21.3 µM
CAKI-1 renal
  GI50: 2.86 µM
  TGI: 9.13 µM
CCRF-CEM leukemia
  GI50: 2.45 µM
  TGI: 7.18 µM
DU-145 prostate
  GI50: 2.73 µM
  TGI: 8.57 µM
EKVX NSCLC
  GI50: 1.99 µM
  TGI: 4.88 µM
HCC-2998 colon
  GI50: 1.87 µM
  TGI: 3.32 µM
HCT-116 colon
  GI50: 1.77 µM
  TGI: 3.33 µM
HCT-15 colon
  GI50: 1.95 µM
  TGI: 4.29 µM
HL-60(TB) leukemia
  GI50: 1.51 µM
  TGI: 3.47 µM
HOP-62 NSCLC
  GI50: 2.08 µM
  TGI: 4.77 µM
HOP-92 NSCLC
  GI50: 1.79 µM
  TGI: 3.75 µM
HS 578T breast
  GI50: 2.15 µM
  TGI: 4.95 µM
HT29 colon
  GI50: 2.23 µM
  TGI: 4.87 µM
IGROV1 ovarian
  GI50: 1.93 µM
  TGI: 3.9 µM
K-562 leukemia
  GI50: 1.72 µM
  TGI: 4.7 µM
KM12 colon
  GI50: 1.76 µM
  TGI: 3.75 µM
M14 melanoma
  GI50: 1.83 µM
  TGI: 3.62 µM
MALME-3M melanoma
  GI50: 2 µM
  TGI: 3.58 µM
MCF7 breast
  GI50: 1.66 µM
  TGI: 3.4 µM
MDA-MB-231 breast
  GI50: 1.65 µM
  TGI: 3.25 µM
MDA-MB-435
  GI50: 1.68 µM
  TGI: 3.13 µM
NCI-H226 lung
  GI50: 2.36 µM
  TGI: 6.58 µM
NCI-H23 lung
  GI50: 1.76 µM
  TGI: 3.85 µM
NCI-H460 lung
  GI50: 1.84 µM
  TGI: 3.73 µM
NCI-H522 lung
  GI50: 1.81 µM
  TGI: 3.65 µM
NCI/ADR-RES ovarian
  GI50: 2.48 µM
  TGI: 6.84 µM
OVCAR-3 ovarian
  GI50: 2.18 µM
  TGI: 4.07 µM
OVCAR-4 ovarian
  GI50: 2.94 µM
  TGI: 8.85 µM
OVCAR-5 ovarian
  GI50: 2.37 µM
  TGI: 4.74 µM
OVCAR-8 ovarian
  GI50: 2.37 µM
  TGI: 6.05 µM
PC-3 prostate
  GI50: 2.13 µM
  TGI: 5.23 µM
RPMI-8226 leukemia
  GI50: 2.08 µM
  TGI: 4.76 µM
RXF 393 renal
  GI50: 1.74 µM
  TGI: 3.33 µM
SF-268 CNS
  GI50: 2.61 µM
  TGI: 6.97 µM
SF-295 CNS
  GI50: 1.7 µM
  TGI: 3.19 µM
SF-539 CNS
  GI50: 1.64 µM
  TGI: 3.09 µM
SK-MEL-2 melanoma
  GI50: 2.05 µM
  TGI: 3.91 µM
SK-MEL-28 melanoma
  GI50: 1.94 µM
  TGI: 3.44 µM
SK-MEL-5 melanoma
  GI50: 1.65 µM
  TGI: 3.05 µM
SK-OV-3 ovarian
  GI50: 13.7 µM
  TGI: 26.6 µM
SN12C renal
  GI50: 1.83 µM
  TGI: 3.61 µM
SNB-19 CNS
  GI50: 1.97 µM
  TGI: 3.8 µM
SNB-75 CNS
  GI50: 6.96 µM
  TGI: 20.1 µM
SW-620 colon
  GI50: 1.93 µM
  TGI: 3.84 µM
TK-10 renal
  GI50: 2.59 µM
  TGI: 4.64 µM
U251 CNS
  GI50: 1.91 µM
  TGI: 3.67 µM
UACC-257 melanoma
  GI50: 1.93 µM
  TGI: 3.51 µM
UACC-62 melanoma
  GI50: 1.78 µM
  TGI: 3.35 µM
UO-31 renal
  GI50: 1.75 µM
  TGI: 3.46 µM

## COC(=O)c1ccccc1CC(Cc1ccccc1)C(=O)OC (stereo unspecified)
786-0 renal
  TGI: > 100 µM
A498 renal
  TGI: > 100 µM
A549 NSCLC
  TGI: > 100 µM
ACHN renal
  TGI: > 100 µM
BT-549 breast
  TGI: > 100 µM
CAKI-1 renal
  TGI: > 100 µM
CCRF-CEM leukemia
  TGI: > 100 µM
COLO 205 colon
  TGI: > 100 µM
DU-145 prostate
  TGI: > 100 µM
EKVX NSCLC
  TGI: > 100 µM
HCC-2998 colon
  TGI: > 100 µM
HCT-116 colon
  TGI: > 100 µM
HCT-15 colon
  TGI: > 100 µM
HL-60(TB) leukemia
  TGI: 55.9 µM
HOP-62 NSCLC
  TGI: > 100 µM
HS 578T breast
  TGI: > 100 µM
HT29 colon
  TGI: > 100 µM
IGROV1 ovarian
  TGI: > 100 µM
K-562 leukemia
  TGI: > 100 µM
KM12 colon
  TGI: > 100 µM
LOX IMVI melanoma
  TGI: > 100 µM
M14 melanoma
  TGI: > 100 µM
MALME-3M melanoma
  TGI: > 100 µM
MCF7 breast
  TGI: > 100 µM
MDA-MB-231 breast
  TGI: > 100 µM
MDA-MB-435
  TGI: > 100 µM
MOLT-4 leukemia
  TGI: 90.7 µM
NCI-H226 lung
  TGI: > 100 µM
NCI-H23 lung
  TGI: > 100 µM
NCI-H460 lung
  TGI: > 100 µM
NCI-H522 lung
  TGI: > 100 µM
NCI/ADR-RES ovarian
  TGI: > 100 µM
OVCAR-3 ovarian
  TGI: > 100 µM
OVCAR-4 ovarian
  TGI: > 100 µM
OVCAR-5 ovarian
  TGI: > 100 µM
OVCAR-8 ovarian
  TGI: > 100 µM
PC-3 prostate
  TGI: > 100 µM
RPMI-8226 leukemia
  TGI: > 100 µM
RXF 393 renal
  TGI: 70.9 µM
SF-268 CNS
  TGI: 61.3 µM
SF-295 CNS
  TGI: > 100 µM
SF-539 CNS
  TGI: > 100 µM
SK-MEL-2 melanoma
  TGI: > 100 µM
SK-MEL-28 melanoma
  TGI: > 100 µM
SK-MEL-5 melanoma
  TGI: 54.8 µM
SK-OV-3 ovarian
  TGI: > 100 µM
SN12C renal
  TGI: > 100 µM
SNB-19 CNS
  TGI: > 100 µM
SNB-75 CNS
  TGI: 73.7 µM
SR leukemia
  TGI: > 100 µM
SW-620 colon
  TGI: > 100 µM
TK-10 renal
  TGI: > 100 µM
U251 CNS
  TGI: > 100 µM
UACC-257 melanoma
  TGI: > 100 µM
UO-31 renal
  TGI: > 100 µM

## CS(=O)(=O)CC(Cc1ccccc1)C(=O)O (stereo unspecified)
SR leukemia
  GI50: 10.6 µg/mL (≈ 43.7 µM)
TK-10 renal
  GI50: 92.1 µg/mL

— PubChem BioAssay (NCI)
